Measured values published in patent US4939177A, “Use of avarol for the control of AIDS and ARC” (Merz + Co. GmbH & Co., priority 1986, dated 1990).
Read-outs that look alike come from different tables or passages of the source.

Assays:
HTLV-III p15 = HTLV-III p15 expression in H9-HTLV-III cells, immunofluorescence; type: cell-based; conditions: for Expression of p15 (in %): none = 100
Protocol: H9-cells (M. Popovic, M. G. Sarngadharan, E. Reed, R. C. Gallo, Science: 224, 1984, 497-500) were treated with Polybren® (hexadimethrinbromide available on the market; 2 μg/ml) for 30 minutes at 37° C., washed free of Polybren and infected with 2×10^8 HTLV-III virus particles (isolated from H9 cell cultures by the method of M. Popovic; see above) per 4×10^5 H9 cells. Some assays which were not treated with drugs were used as positive controls, while different concentrations of the compound to be tested (avarone or avarol and their derivatives) were added to the test samples. The HTLV-III reverse transcriptase activity of these cultures was analyzed in the manner described above.
The immunofluorescence assays were carried out on methanol:acetone (1:1)-fixed cells with the use of monoclonal antibodies (from the mouse) against HTLV-III p15 (core protein of MW=15,000) and p24 (core protein of MW=24,000). Both of these proteins are marker proteins which indicate the presence of virus particles in the cells. The HTLV-III Infected cells with or without drug treatment were fixed on toxoplasmosis slides. After fixation with methanol-acetone (1:1) for 30 minutes at room temperature, the slides were stored in sealed plastic containers at -20° C. until use. The monoclonal antibodies were added to the cells, incubated at room temperature in a moisture chamber for one hour and washed for two hours with PBS (phospate buffered saline) containing 0.25% Triton X-100. The cells were then treated for one hour with fluorescein (FITC) labeled goat anti-mouse IgG (Capell Labs.) and washed overnight with PBS buffer containing 0.25% Triton X-100. Fifty percent glycerin was added to the slides and the cell fluorescence was determined with a Zeiss fluorescence microscope.
When the target H9-cells were treated with the HTLV-III isolate and cultivated without the compounds to be tested, the H9-cells were infected and, as established by indirect immunofluorescence assay, there was expression of the p24 and p15 protein. After incubation of the H9-HTLV-III cells with the compounds to be tested, a practically complete protective effect was observed.

HTLV-III p24 = type: cell-based; conditions: for Expression of p24 (in %): none = 100
[1] = test system: human peripheral blood lymphocytes (IgM); assay: In vitro IgM production by peripheral blood lymphocytes; type: cell-based
Protocol: Human peripheral blood lymphocytes (6×10^5 cells/ml) were cultured in the presence of 0 to 2 μg/ml of pokeweed mitogen (PWM; Sigma no. 9379) in Dulbeccos minimum essential medium, supplemented with 20% fetal calf serum, for 6 days. The assays were performed in a final volume of 200 μl in microtiter plates (Dynatech; M129B) (Muller et al., Eur. J. Cancer Clin. Oncol. 22: 473-476; 1986). Avarol in a concentration range of 0-3 μg/ml was added at time 0 or 3 days after starting the culture. The supernatants were harvested and assayed for human immunoglobulin content.
The culture supernatants were assayed by the enzyme-linked immunosorbent assay (Houtman et al., Clin. Exp. Immunol. 62: 696-704; 1985) using anti-human IgG (Dakopatts, Hamburg; P214) and anti-human IgM (Dakopatts; P215). These antibodies were conjugated to peroxidase. Bound enzyme activity was measured using 2,2'-azino-bis(3-ethylbenzthiazolinesulfonic acid) (Sigma no. A-1888) as substrate.

[2] = type: in vivo, rat; conditions: for Percentage of Radioactivity in Blood: rat
[3] = Organ distribution of tritium labelled avarol in rats; type: in vivo, rat; conditions: for Concentration of Avarol, Brain / Concentration of Avarol, Heart / Concentration of Avarol, Kidney / Concentration of Avarol, Liver / Concentration of Avarol, Skin / Concentration of Avarol, Spleen / Concentration of Avarol, Testes: rat, 24 hours

## CC1=CCC[C@H]2[C@](C)(Cc3cc(O)ccc3O)[C@@H](C)CC[C@]12C [Avarol, 2-[(1R)-1,2,3,4,4a,7,8,8aα-octahydro-1β,2β,4aβ,5-tetramethyl-1-naphthylmethyl]-1,4-benzenediol]
HTLV-III p15; 0.1 μg/ml
  Expression of p15 (in %): 37%
HTLV-III p15; 1 μg/ml
  Expression of p15 (in %): 12%
HTLV-III p15; 5 μg/ml
  Expression of p15 (in %): 12%
HTLV-III p15; H9-HTLV-III cells
  expression of HTLV-III protein p15, in words: significant reduction
HTLV-III p24; 0.1 μg/ml
  Expression of p24 (in %): 28%
HTLV-III p24; 1 μg/ml
  Expression of p24 (in %): 14%
HTLV-III p24; 5 μg/ml
  Expression of p24 (in %): 14%
HTLV-III p24; H9-HTLV-III cells
  expression of HTLV-III protein p24, in words: significant reduction
[1]; 0.3 or 1 μg/ml, irrespective of PWM
  IgM production, in words: significant increase
[1]; avarol 0.3 μg/ml, PWM +, 0 to 6 days
  IgM synthesized: 20.4 ± 5.1 µg/mL
[1]; avarol 0.3 μg/ml, PWM +, 3 to 6 days
  IgM synthesized: 24.7 ± 5.6 µg/mL
[1]; avarol 0.3 μg/ml, PWM -, 0 to 6 days
  IgM synthesized: 14.7 ± 3.4 µg/mL
[1]; avarol 0.3 μg/ml, PWM -, 3 to 6 days
  IgM synthesized: 14.2 ± 3.3 µg/mL
[1]; avarol 1.0 μg/ml, PWM +, 0 to 6 days
  IgM synthesized: 23.5 ± 5.5 µg/mL
[1]; avarol 1.0 μg/ml, PWM +, 3 to 6 days
  IgM synthesized: 25.6 ± 5.9 µg/mL
[1]; avarol 1.0 μg/ml, PWM -, 0 to 6 days
  IgM synthesized: 15.6 ± 4.0 µg/mL
[1]; avarol 1.0 μg/ml, PWM -, 3 to 6 days
  IgM synthesized: 15.9 ± 4.2 µg/mL
[1]; avarol 3.0 μg/ml, PWM +, 0 to 6 days
  IgM synthesized: 10.5 ± 2.6 µg/mL
[1]; avarol 3.0 μg/ml, PWM +, 3 to 6 days
  IgM synthesized: 11.7 ± 2.9 µg/mL
[1]; avarol 3.0 μg/ml, PWM -, 0 to 6 days
  IgM synthesized: 8.1 ± 1.8 µg/mL
[1]; avarol 3.0 μg/ml, PWM -, 3 to 6 days
  IgM synthesized: 8.4 ± 1.9 µg/mL
[1]; higher avarol concentrations
  IgM production, in words: turned to normal values
[2]; i.v. 10 mg/kg, 1 hour, 100% = 10 minutes after injection
  Percentage of Radioactivity in Blood: 96%
[2]; i.v. 10 mg/kg, 6 hours, 100% = 10 minutes after injection
  Percentage of Radioactivity in Blood: 88%
[2]; i.v. 10 mg/kg, 12 hours, 100% = 10 minutes after injection
  Percentage of Radioactivity in Blood: 72%
[2]; i.v. 10 mg/kg, 24 hours, 100% = 10 minutes after injection
  Percentage of Radioactivity in Blood: 43%
[2]; i.v. 10 mg/kg, 48 hours, 100% = 10 minutes after injection
  Percentage of Radioactivity in Blood: 26%
[2]; i.v. 20 mg/kg, 1 hour, 100% = 10 minutes after injection
  Percentage of Radioactivity in Blood: 92%
[2]; i.v. 20 mg/kg, 12 hours, 100% = 10 minutes after injection
  Percentage of Radioactivity in Blood: 75%
[2]; i.v. 20 mg/kg, 24 hours, 100% = 10 minutes after injection
  Percentage of Radioactivity in Blood: 39%
[2]; i.v. 20 mg/kg, 48 hours, 100% = 10 minutes after injection
  Percentage of Radioactivity in Blood: 21%
[2]; in vivo, iv, 20 mg/kg
  Percentage of Radioactivity in Blood: 83
[2]; rats, i.v.
  half-life: approximately 22 hours
[3]; i.v. 2 mg/kg
  Concentration of Avarol, Brain: 0.45 microgram of Avarol per gram o
  Concentration of Avarol, Heart: 0.7 microgram of Avarol per gram o
  Concentration of Avarol, Kidney: 1.6 microgram of Avarol per gram o
  Concentration of Avarol, Liver: 6.4 microgram of Avarol per gram o
  Concentration of Avarol, Skin: 0.4 microgram of Avarol per gram o
  Concentration of Avarol, Spleen: 1.7 microgram of Avarol per gram o
  Concentration of Avarol, Testes: 0.48 microgram of Avarol per gram o
[3]; i.v. 10 mg/kg
  Concentration of Avarol, Brain: 0.58 microgram of Avarol per gram o
  Concentration of Avarol, Heart: 0.9 microgram of Avarol per gram o
  Concentration of Avarol, Kidney: 2.2 microgram of Avarol per gram o
  Concentration of Avarol, Liver: 6.9 microgram of Avarol per gram o
  Concentration of Avarol, Skin: 0.6 microgram of Avarol per gram o
  Concentration of Avarol, Spleen: 1.9 microgram of Avarol per gram o
  Concentration of Avarol, Testes: 0.63 microgram of Avarol per gram o
[3]; i.v. 20 mg/kg
  Concentration of Avarol, Brain: 0.64 microgram of Avarol per gram o
  Concentration of Avarol, Heart: 0.9 microgram of Avarol per gram o
  Concentration of Avarol, Kidney: 2.4 microgram of Avarol per gram o
  Concentration of Avarol, Liver: 7.4 microgram of Avarol per gram o
  Concentration of Avarol, Skin: 0.6 microgram of Avarol per gram o
  Concentration of Avarol, Spleen: 2.2 microgram of Avarol per gram o
  Concentration of Avarol, Testes: 0.67 microgram of Avarol per gram o
[3]; rats, i.v.
  blood-brain barrier penetration: penetrates the blood-brain barrier
